Data as given in EP1674468A1, “Polymorphs of clopidogrel hydrobromide” (Ratiopharm GmbH, priority 2004, dated 2006).
Structures can show the parent of a compound that is named as a salt. Where two headings read alike, the source gives them in different places.

What was measured:
[1] = Method: Example 10: Stability of the forms (solvent mediated transformation studies)
To assess the stability of the anhydrous Forms A and B, solvent mediated transformation experiments were performed. […] This was tested by viewing a few crystals of Form A/Form B under the microscope by placing them on a glass plate with a cover-slip, adding a drop of water and spreading around the cover. […] Table 3: Results of the solvent mediated transformation studies

platelet aggregation = conditions: 75 mg of base equivalent versus 325 mg of acetyl salicylic acid; cited from earlier work
[2] = in vivo; cited from earlier work
[3] = room temperature, closed glass container, after 8 to 10 month; PXRD, DSC, Raman
From the text: Polymorph Form B of clopidogrel hydrobromide obtained in example 2a) was stored at room temperature in a closed glass container.

[4] = 100 mg in 5 ml, water bath at 80-100°C
Method: Method example 1: 100 mg of clopidogrel hydrobromide HY-1 obtained according to example Ba) was dissolved in 5 ml of the solvent on a water bath at 80-100°C with constant shaking and the solvent was allowed to evaporate slowly at room temperature for 24 hours at ambient pressure.

[5] = benzene/ acetonitrile 1:1, method example b (dissolved at 70°C, evaporation 24 hours at room temperature)
Method: Method example b: 100 mg of clopidogrel hydrobromide HY-1 were dissolved in 3-5 ml of the first solvent at a temperature of 70°C. 8-10 ml of the second solvent were added to the solution over 3-5 minutes to reduce the polarity until it becomes a saturated solution. The solvent mixture was allowed to evaporate for 24 hours at room temperature at ambient pressure for 24 hours. The precipitate was filtered off.

SMILES: COC(=O)[C@H](c1ccccc1Cl)N1CCc2sccc2C1 [A:B (1:1), clopidogrel hydrobromide]
- Resulting form ([1]; solvent toluene, 1 day/10-30°C): HY-2
- Resulting form ([1]; solvent water, 1 day/20°C): HY-1
- polymorph produced on stirring ([1]; toluene (200 mg in 3-5 ml), 10-30°C, 1-4 days, formed after 1 day, confirmed after 4 days and 2-4 weeks by PXRD, DSC, TGA, Raman): HY-2

SMILES: COC(=O)[C@H](c1ccccc1Cl)N1CCc2sccc2C1 [Clopidogrel, (αS)-α-(2-chlorophenyl)-6,7-dihydrothieno[3,2-c]-pyridine-5(4H)-acetic acid methyl ester]
- effectiveness in blocking platelet aggregation versus acetyl salicylic acid (platelet aggregation): more effective
- gastrointestinal bleeding versus acetyl salicylic acid [2]: much less

SMILES: COC(=O)[C@H](c1ccccc1Cl)N1CCc2sccc2C1 [Form A, clopidogrel hydrobromide]
- time span within which needle like crystals corresponding to HY-1 were formed ([1]; a few crystals on a glass plate under the microscope, a drop of water added): ≤ 30 min
- time span within which the form is converted to the hydrate, i.e. HY-1 ([1]; apolar solvents containing minimal amounts of water): ≤ 1 h
- Resulting form ([1]; solvent water, 30 min/25°C): HY-1

SMILES: COC(=O)[C@H](c1ccccc1Cl)N1CCc2sccc2C1 [Form B, clopidogrel hydrobromide]
- polymorphic form identified after storage [3]: Form E

SMILES: COC(=O)[C@H](c1ccccc1Cl)N1CCc2sccc2C1 [Form HY-1, clopidogrel hydrobromide]
- solubility ([4]; solvent acetic acid): highly soluble
- solubility ([4]; solvent acetone): soluble
- solubility ([4]; solvent acetonitrile): soluble
- solubility ([4]; solvent benzene): sparingly soluble
- solubility ([4]; solvent chloroform): highly soluble
- solubility ([4]; solvent cyclohexane): insoluble
- solubility ([4]; solvent dichloromethane): highly soluble
- solubility ([4]; solvent diethylether): insoluble
- solubility ([4]; solvent dimethylformamide): soluble
- solubility ([4]; solvent dioxane): soluble in hot
- solubility ([4]; solvent ethanol): highly soluble
- solubility ([4]; solvent ethylacetate): soluble in hot
- solubility ([4]; solvent i-propanol): highly soluble
- solubility ([4]; solvent methanol): highly soluble
- solubility ([4]; solvent n-butanol): highly soluble
- solubility ([4]; solvent n-decane): insoluble
- solubility ([4]; solvent n-hexane): insoluble
- solubility ([4]; solvent n-pentanol): soluble
- solubility ([4]; solvent n-propanol): highly soluble
- solubility ([4]; solvent nitromethane): soluble
- solubility ([4]; solvent petrolether): insoluble
- solubility ([4]; solvent tetrachloromethane): insoluble
- solubility ([4]; solvent tetrahydrofurane): soluble in hot
- solubility ([4]; solvent toluene): soluble in hot
- solubility ([4]; solvent water): sparingly soluble in hot
- solubility ([4]; solvent xylene): soluble in hot
- Remarks (behaviour in the solvent mixture) [5]: Decomposition
